pIC50: −log10 of the molar value.
Legend:
Experiment in all cases: KAM-matrix competition in K562 lysate;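 for 0.001 uM KAM: median log10 fold change of treatment over DMSO control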;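 for 0.01 uM KAM: median log10 fold change of treatment over DMSO control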;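 for 0.1 uM KAM: median log10 fold change of treatment over DMSO control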;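 for 1 uM KAM: median log10 fold change of treatment over DMSO control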;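 for 10 uM KAM: median log10 fold change of treatment over DMSO control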
Type in all cases: binding
[1] = target: T1, MELK (Homo sapiens, UniProt Q14680)
T1 construct: endogenous in cells; host or cells: K562
T1 sequence (Q14680 whole entry): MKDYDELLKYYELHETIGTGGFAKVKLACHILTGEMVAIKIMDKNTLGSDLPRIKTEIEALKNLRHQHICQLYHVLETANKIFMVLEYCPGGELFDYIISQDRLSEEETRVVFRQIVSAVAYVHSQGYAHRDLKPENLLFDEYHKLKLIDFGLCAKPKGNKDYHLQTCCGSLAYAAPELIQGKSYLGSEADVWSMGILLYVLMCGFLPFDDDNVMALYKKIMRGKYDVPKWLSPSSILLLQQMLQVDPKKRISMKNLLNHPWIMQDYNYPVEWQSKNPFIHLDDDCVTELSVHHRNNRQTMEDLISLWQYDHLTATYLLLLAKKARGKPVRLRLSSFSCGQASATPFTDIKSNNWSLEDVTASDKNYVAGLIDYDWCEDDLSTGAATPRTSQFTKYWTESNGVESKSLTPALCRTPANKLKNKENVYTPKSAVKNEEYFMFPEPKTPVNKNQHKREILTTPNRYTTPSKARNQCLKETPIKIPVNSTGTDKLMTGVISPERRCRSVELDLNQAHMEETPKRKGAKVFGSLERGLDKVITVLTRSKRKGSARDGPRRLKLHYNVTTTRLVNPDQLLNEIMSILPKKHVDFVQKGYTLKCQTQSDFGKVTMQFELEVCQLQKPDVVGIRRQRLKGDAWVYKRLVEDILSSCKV
Protocol: (§1) Supplement 12953_2017_125_MOESM1_ESM.zip/MS_Supp Info.xlsx, sheet "KAM" | column: 10 uM KAM; 1 uM KAM; 0.1 uM KAM; 0.01 uM KAM; 0.001 uM KAM; RB50

[2] = target: T2, ULK3 (Homo sapiens, UniProt Q6PHR2)
T2 construct: endogenous in cells; host or cells: K562 cell lysate
T2 sequence (Q6PHR2 1-472): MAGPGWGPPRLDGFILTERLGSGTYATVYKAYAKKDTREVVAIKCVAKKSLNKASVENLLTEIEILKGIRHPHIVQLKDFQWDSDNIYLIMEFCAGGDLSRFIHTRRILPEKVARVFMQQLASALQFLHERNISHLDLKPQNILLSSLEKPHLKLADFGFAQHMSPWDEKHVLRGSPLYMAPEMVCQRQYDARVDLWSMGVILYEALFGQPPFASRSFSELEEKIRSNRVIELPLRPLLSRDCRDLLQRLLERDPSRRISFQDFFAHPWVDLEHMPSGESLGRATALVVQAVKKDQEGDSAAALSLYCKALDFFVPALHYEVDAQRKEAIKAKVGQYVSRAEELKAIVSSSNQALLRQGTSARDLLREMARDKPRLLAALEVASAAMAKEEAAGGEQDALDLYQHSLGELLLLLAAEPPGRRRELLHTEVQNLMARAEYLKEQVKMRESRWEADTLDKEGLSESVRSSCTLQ
Protocol: as §1

[3] = target: T3, ARAF (Homo sapiens, UniProt P10398);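 for 0.001 uM KAM: median log10 fold change of treatment over DMSO control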;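 for 0.01 uM KAM: median log10 fold change of treatment over DMSO control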;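 for 0.1 uM KAM: median log10 fold change of treatment over DMSO control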;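 for 1 uM KAM: median log10 fold change of treatment over DMSO control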;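 for 10 uM KAM: median log10 fold change of treatment over DMSO control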
T3 construct: endogenous in cells; host or cells: K562
T3 sequence (P10398 1-606): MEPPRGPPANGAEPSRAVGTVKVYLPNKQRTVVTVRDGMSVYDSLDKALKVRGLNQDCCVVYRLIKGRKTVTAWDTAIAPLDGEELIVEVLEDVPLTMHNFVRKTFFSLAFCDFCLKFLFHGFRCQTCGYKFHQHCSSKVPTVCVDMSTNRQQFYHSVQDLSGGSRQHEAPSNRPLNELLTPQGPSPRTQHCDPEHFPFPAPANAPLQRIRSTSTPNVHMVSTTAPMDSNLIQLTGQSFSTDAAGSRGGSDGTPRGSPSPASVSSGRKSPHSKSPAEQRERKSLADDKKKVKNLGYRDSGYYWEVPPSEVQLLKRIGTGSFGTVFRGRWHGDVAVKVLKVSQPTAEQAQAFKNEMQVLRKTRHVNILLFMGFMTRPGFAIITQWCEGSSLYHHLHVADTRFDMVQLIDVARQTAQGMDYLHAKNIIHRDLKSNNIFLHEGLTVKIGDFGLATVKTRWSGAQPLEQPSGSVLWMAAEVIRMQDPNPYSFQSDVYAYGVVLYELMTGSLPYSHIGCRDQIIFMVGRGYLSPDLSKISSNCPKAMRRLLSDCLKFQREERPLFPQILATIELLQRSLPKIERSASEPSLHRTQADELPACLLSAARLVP
Protocol: as §1

[4] = target: T4, TEC (Homo sapiens, UniProt P42680)
T4 construct: endogenous in cells; host or cells: K562 cell lysate
T4 sequence (P42680 1-631): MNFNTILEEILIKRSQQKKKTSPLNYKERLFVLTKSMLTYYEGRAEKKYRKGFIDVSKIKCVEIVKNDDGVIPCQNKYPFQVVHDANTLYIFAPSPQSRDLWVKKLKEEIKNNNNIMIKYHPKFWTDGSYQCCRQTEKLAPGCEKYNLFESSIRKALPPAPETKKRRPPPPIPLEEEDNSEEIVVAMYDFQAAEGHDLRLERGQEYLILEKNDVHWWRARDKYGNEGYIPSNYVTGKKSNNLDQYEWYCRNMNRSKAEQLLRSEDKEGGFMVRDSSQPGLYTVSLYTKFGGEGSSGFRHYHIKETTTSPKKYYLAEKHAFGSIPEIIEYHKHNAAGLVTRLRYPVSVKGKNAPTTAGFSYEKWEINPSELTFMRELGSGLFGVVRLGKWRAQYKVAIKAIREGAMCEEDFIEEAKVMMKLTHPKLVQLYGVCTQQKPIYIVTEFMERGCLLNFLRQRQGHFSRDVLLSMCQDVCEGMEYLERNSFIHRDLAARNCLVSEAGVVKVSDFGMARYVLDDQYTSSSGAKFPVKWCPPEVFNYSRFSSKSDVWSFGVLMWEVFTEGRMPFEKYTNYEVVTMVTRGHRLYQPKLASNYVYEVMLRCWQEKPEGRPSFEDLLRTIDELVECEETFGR
Protocol: as §1

[5] = target: T5, MAST2 (Homo sapiens, UniProt Q6P0Q8);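 for 0.001 uM KAM: median log10 fold change of treatment over DMSO control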;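 for 0.01 uM KAM: median log10 fold change of treatment over DMSO control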;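 for 0.1 uM KAM: median log10 fold change of treatment over DMSO control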;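 for 1 uM KAM: median log10 fold change of treatment over DMSO control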;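 for 10 uM KAM: median log10 fold change of treatment over DMSO control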
T5 construct: endogenous in cells; host or cells: K562 cells (combined S0.8 and P0.8 lysate)
Protocol: as §1

[6] = target: T6, TRRAP (Homo sapiens, UniProt Q9Y4A5);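 for 0.001 uM KAM: median log10 fold change of treatment over DMSO control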;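 for 0.01 uM KAM: median log10 fold change of treatment over DMSO control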;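 for 0.1 uM KAM: median log10 fold change of treatment over DMSO control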;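 for 1 uM KAM: median log10 fold change of treatment over DMSO control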;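 for 10 uM KAM: median log10 fold change of treatment over DMSO control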
T6 construct: endogenous in cells; host or cells: K562
T6 sequence (Q9Y4A5 whole entry): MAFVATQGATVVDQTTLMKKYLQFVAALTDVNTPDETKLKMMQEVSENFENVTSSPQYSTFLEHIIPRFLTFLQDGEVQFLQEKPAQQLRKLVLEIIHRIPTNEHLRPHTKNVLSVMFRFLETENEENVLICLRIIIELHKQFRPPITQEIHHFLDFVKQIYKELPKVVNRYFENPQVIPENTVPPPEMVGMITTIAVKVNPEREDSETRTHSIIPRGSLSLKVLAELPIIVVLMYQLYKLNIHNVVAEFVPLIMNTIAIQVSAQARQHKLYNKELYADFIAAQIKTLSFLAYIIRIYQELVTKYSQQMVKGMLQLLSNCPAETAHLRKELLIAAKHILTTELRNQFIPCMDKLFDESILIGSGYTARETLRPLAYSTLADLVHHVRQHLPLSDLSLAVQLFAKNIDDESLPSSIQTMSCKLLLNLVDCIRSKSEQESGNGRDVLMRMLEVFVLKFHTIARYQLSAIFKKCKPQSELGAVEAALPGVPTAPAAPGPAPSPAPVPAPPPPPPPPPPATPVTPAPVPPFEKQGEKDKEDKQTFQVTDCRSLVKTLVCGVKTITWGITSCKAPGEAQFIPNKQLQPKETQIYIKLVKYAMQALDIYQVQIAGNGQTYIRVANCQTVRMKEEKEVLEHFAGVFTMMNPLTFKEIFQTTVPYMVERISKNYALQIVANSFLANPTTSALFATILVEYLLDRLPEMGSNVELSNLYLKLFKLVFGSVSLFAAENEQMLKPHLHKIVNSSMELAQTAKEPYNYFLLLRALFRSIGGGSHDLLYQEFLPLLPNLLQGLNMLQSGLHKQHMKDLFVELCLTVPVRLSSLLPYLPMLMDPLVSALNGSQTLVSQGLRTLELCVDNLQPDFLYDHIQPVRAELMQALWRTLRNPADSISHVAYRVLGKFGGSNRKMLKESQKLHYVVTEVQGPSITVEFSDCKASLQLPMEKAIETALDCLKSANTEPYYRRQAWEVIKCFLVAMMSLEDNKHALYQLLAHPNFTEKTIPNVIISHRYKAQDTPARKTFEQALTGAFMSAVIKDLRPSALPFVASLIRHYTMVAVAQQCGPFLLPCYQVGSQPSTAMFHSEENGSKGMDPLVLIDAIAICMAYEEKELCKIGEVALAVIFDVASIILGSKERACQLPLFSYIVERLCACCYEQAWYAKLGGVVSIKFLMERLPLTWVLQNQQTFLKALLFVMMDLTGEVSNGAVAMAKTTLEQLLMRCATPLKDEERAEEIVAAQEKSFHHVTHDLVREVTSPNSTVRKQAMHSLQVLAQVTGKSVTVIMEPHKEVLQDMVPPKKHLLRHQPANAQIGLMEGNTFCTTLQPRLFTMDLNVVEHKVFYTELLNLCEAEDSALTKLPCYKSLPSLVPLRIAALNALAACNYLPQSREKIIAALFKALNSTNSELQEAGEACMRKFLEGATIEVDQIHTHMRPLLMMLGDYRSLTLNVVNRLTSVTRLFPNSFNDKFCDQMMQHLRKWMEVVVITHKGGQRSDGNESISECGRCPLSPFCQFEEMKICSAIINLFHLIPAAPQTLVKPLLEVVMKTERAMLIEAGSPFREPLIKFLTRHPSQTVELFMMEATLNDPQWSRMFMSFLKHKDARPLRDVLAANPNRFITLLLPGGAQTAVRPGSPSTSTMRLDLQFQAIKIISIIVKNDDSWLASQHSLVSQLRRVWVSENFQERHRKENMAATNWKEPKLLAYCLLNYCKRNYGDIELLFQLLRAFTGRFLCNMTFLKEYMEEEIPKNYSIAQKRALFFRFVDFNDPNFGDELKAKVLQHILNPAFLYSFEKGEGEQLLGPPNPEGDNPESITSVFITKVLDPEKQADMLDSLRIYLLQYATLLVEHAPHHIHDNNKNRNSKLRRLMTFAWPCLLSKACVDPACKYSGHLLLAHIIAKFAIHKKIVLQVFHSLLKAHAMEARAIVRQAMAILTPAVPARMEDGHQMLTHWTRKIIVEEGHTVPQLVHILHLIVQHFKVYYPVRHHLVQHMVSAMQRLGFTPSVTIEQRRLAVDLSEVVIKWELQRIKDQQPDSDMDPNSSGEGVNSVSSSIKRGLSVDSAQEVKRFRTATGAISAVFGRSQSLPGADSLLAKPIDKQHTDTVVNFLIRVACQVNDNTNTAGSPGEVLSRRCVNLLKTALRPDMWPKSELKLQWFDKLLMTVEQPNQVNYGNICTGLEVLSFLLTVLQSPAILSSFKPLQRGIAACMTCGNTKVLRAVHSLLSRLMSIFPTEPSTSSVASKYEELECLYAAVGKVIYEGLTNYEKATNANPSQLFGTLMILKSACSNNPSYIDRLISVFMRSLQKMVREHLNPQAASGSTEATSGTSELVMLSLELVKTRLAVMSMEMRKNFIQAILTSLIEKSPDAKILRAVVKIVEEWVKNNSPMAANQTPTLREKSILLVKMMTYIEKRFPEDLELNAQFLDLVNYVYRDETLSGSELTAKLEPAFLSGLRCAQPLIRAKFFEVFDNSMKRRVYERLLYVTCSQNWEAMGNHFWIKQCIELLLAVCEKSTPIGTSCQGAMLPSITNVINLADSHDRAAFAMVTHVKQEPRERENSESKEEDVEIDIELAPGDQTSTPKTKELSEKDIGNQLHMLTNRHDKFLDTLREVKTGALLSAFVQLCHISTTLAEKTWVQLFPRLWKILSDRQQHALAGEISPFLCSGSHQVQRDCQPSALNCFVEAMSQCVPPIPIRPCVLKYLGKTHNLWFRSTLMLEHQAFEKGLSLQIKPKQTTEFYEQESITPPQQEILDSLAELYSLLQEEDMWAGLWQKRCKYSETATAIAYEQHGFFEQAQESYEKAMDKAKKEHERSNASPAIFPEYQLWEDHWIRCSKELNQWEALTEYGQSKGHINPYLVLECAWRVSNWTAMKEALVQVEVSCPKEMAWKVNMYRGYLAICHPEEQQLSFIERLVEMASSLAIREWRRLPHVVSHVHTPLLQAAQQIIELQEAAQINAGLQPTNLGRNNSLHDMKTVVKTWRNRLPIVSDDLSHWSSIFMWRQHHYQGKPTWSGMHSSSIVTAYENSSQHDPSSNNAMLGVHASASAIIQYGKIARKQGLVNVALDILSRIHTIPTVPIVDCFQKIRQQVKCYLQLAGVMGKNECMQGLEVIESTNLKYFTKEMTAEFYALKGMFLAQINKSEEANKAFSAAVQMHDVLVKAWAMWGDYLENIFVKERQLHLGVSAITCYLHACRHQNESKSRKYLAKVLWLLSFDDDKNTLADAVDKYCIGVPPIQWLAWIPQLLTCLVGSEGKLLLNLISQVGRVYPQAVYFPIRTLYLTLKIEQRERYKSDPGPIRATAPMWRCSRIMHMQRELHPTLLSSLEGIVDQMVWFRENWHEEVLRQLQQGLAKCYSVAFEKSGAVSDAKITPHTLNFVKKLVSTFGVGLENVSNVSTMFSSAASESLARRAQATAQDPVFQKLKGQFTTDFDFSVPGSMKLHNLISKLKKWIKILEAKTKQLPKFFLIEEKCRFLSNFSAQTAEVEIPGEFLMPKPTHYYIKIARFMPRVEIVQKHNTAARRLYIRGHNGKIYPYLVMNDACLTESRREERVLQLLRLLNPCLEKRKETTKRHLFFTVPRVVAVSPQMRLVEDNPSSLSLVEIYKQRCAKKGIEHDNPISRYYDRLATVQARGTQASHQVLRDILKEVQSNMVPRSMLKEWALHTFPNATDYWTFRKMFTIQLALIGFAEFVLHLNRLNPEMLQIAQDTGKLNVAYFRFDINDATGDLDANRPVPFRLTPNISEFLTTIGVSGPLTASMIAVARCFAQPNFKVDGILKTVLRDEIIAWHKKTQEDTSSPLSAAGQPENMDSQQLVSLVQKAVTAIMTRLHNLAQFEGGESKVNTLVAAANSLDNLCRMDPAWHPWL
Protocol: as §1

[7] = target: T7, MARK3 (Homo sapiens, UniProt P27448)
T7 construct: endogenous in cells; host or cells: K562
Protocol: as §1

[8] = read-out: RB50 (the source's name)
[9] = KAM 0.001-10 uM, read-out: RB50 (the source's name)

## N#CCc1ccc(Nc2nc(NCCCN)cc(Nc3cc(C4CC4)[nH]n3)n2)cc1 [KAM]
[1]; 0.001 uM KAM
  median Log10 fold change: -0.02147
[1]; 0.01 uM KAM
  median Log10 fold change: 0.005817
[1]; 0.1 uM KAM
  median Log10 fold change: -0.06915
[1]; 1 uM KAM
  median Log10 fold change: -0.3528
[1]; 10 uM KAM
  median Log10 fold change: -0.5701
[1]; [8]
  pIC50: 6.03
[2]; 0.001 uM KAM
  median Log10 fold change: 0.008102
[2]; 0.01 uM KAM
  median Log10 fold change: 0.009404
[2]; 0.1 uM KAM
  median Log10 fold change: -0.1871
[2]; 1 uM KAM
  median Log10 fold change: -0.4491
[2]; 10 uM KAM
  median Log10 fold change: -0.5442
[2]; [8]
  pIC50: 6.39
[3]; [9]
  pIC50: < 5.00
[3]; relative to 0 uM KAM = 0
  0.001 uM KAM: -0.04442
  0.01 uM KAM: -0.008723
  0.1 uM KAM: -0.09412
  1 uM KAM: -0.1283
  10 uM KAM: -0.1374
[4]; 0.001 uM KAM
  median Log10 fold change: -0.06308
[4]; 0.01 uM KAM
  median Log10 fold change: -0.04798
[4]; 0.1 uM KAM
  median Log10 fold change: -0.155
[4]; 1 uM KAM
  median Log10 fold change: -0.2973
[4]; 10 uM KAM
  median Log10 fold change: -0.4239
[4]; [8]
  pIC50: 5.93
[5]; [9]
  pIC50: < 5.00
[5]; relative to 0 uM KAM = 0
  0.001 uM KAM: -0.0424
  0.01 uM KAM: 0.0396
  0.1 uM KAM: -0.03782
  1 uM KAM: -0.1315
  10 uM KAM: -0.1411
[6]; [9]
  pIC50: < 5.00
[6]; relative to 0 uM KAM = 0
  0.001 uM KAM: -0.07186
  0.01 uM KAM: 0.02458
  0.1 uM KAM: 0.0008026
  1 uM KAM: 0.06144
  10 uM KAM: -0.07955
[7]; 0.001 uM KAM
  median Log10 fold change: -0.0002127
[7]; 0.01 uM KAM
  median Log10 fold change: -0.02099
[7]; 0.1 uM KAM
  median Log10 fold change: -0.2742
[7]; 1 uM KAM
  median Log10 fold change: -0.5652
[7]; 10 uM KAM
  median Log10 fold change: -0.6472
[7]; [8]
  pIC50: 6.80

From publication PMC5513037, “Examining the influence of specificity ligands and ATP-competitive ligands on the overall effectiveness of bivalent kinase inhibitors” (Proteome Science, 2017)
